The values below come from patent US11332438B2, “Creatine prodrugs, compositions and methods of use thereof” (Ultragenyx Pharmaceutical Inc., priority 2017, dated 2022).

A short description of series [1]: Plasma stability, mouse plasma. The series is classed as in vitro ADME. The settings on record: Table 2A, 37 °C, read-out: Plasma Stability Mouse t1/2. The method, boiled down: (§1)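 Half-life (min) from LC-MS/MS of acetonitrile-quenched samples taken at t=0, 2, 5, 15, 30 min. Compound dosed at 1 µM final into plasma pre-warmed to 37 °C, pH set to 7.4 where required; incubations at 37 °C.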

Series [2] is described as follows: Liver microsome stability, human. The series is classed as in vitro ADME. The settings on record: liver microsomes, pH 7.4, Table 2A, read-out: Microsome Stability Human t1/2. In short, it runs like this:
(§2)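 Remaining compound measured by LC/MS after acetonitrile/internal-standard quench at 0–60 min time points (0, 5, 10, 20, 30, 60). Incubations used mouse or human liver microsomes in pH 7.4 potassium phosphate/EDTA buffer with NADPH; a 60-min sample without NADPH served as control.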
In general terms: Liver microsomes are vesicles of endoplasmic reticulum, rich in cytochrome P450 enzymes.

Series [3] can be described thus: Chemical stability in phosphate buffered saline (PBS). The series is classed as physicochemical. The note with it: 50 μM prodrug. In short, it runs like this: (§3)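 Incubations used 50 μM compound at 37 °C in phosphate buffered saline, fasted simulated intestinal fluid without pancreatin, or fasted simulated gastric fluid without pepsin.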
The subject of series [4] is ARPE-19 cells. In words: Creatine prodrug uptake and d3-creatine release in ARPE-19 cells (Table 4A). The series is classed as cell-based, human. The settings on record: 50 μM, 6 h, cytosol fraction, corrected for total protein.
A short description of series [5]: Chemical stability in simulated gastric fluid (SGF) without pepsin. The series is classed as physicochemical. The note with it: 50 μM prodrug. In short, it runs like this:
as §3

Series [6] is described as follows: Plasma stability, human plasma. The series is classed as in vitro ADME. The note with it: Table 2A, 37 °C, read-out: Plasma Stability Human t1/2. In short, it runs like this: as §1
A short description of series [7]: Liver microsome stability, mouse. The series is classed as in vitro ADME. The note with it: liver microsomes, pH 7.4, Table 2A, read-out: Microsome Stability Mouse t1/2. In short, it runs like this:
as §2

On to `Cl.[H]/N=C(/NC(=O)CCCCCCC/C=C\CCCCCCCC)N(CC(=O)OCCCCCCC)C([2H])([2H])[2H]` [Compound 2, (Z)-heptyl 2-(1-trideuteriomethyl-3-oleoylguanidino)acetate Hydrochloride], for which the half-life in series [1] and in series [6] was less than 5 min throughout. The figures for the half-life at 10 μM in series [2] and in series [7] were 6 min and 7 min, respectively. Further, in series [3] (Table 2A), the “Chemical Stability PBS % T0 at 2 hours at 37 °C.” value (“Chemical Stability PBS % T0” below) was found to be 61%. For the same compound, the “prodrug, Cellular Uptake” value in series [4] is given as “BQL”. Besides, the “Chemical Stability SGF, no enzyme % T0 at 2 hours at 37 °C.” value (“Chemical Stability SGF, no enzyme % T0” for short) in series [5] (Table 2A) was 81%.
Take `Cl.[2H]C([2H])([2H])N(CC(=O)OCC)C(=N)NC(=O)CCCCCCCCCC` [Compound 8]: the half-life in series [1] and in series [6] was less than 5 min each time. The half-life at 10 μM in series [2] and in series [7] was less than 5 min throughout. In addition, the “Chemical Stability PBS % T0” value in series [3] (Table 2A) and in series [3] (Table 2B) was 0% each time. Further, the “Chemical Stability SGF, no enzyme % T0” value in series [5] (Table 2A) is recorded as 117%; in series [5] (Table 2B), 95%.
For `Cl.[2H]C([2H])([2H])N(CC(=O)OCCCCCCC)C(=N)NC(=O)CCCCCCCCCCCC` [Compound 11], the half-life in series [1] and in series [6] was less than 5 min in each case. Besides, the half-life at 10 μM in series [2] and in series [7] was less than 5 min throughout. Moreover, the “Chemical Stability PBS % T0” value in series [3] (Table 2A) was found to be 42%. For the same compound, the “prodrug, Cellular Uptake” value in series [4] is listed as “BQL”. The “Chemical Stability SGF, no enzyme % T0” value in series [5] (Table 2A) was 76%.
